From PubChem BioAssay AID248 (DTP/NCI, 2004)
Values joined by “and” are separate entries in the source; they are usually repeats but may differ in a detail not shown here. Identical values can stand only once. Toxic doses and inconclusive results are not listed. Rule as the data show it: active = T/C of 150% or more; inactive = T/C below 125%.

System: L1210 leukemia ip in BDF1 mice, survival T/C
Experiment: NCI In Vivo Anticancer Drug Screen. Data for tumor model L1210 Leukemia (intraperitoneal) in B6D2F1 (BDF1) mice
Conditions: endpoint: mean survival time, higher = longer survival
Outline: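 Survival endpoint. Drug-treated group vs vehicle group, expressed as T divided by C. Tumor passaged by transplantation.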

[1] = dose: 6.25 mg/kg/injection, schedule: Q01DX009 (ip), vehicle: saline
[2] = dose: 100.0 mg/kg/injection, schedule: Q01DX001 (ip), vehicle: saline with Tween-80
[3] = dose: 200.0 mg/kg/injection, schedule: Q01DX001 (ip), vehicle: saline with Tween-80
[4] = dose: 100.0 mg/kg/injection, schedule: Q04DX003 (ip), vehicle: saline with Tween-80
[5] = dose: 200.0 mg/kg/injection, schedule: Q04DX003 (ip), vehicle: saline with Tween-80
[6] = dose: 100.0 mg/kg/injection, schedule: Q01DX009 (ip), vehicle: saline
[7] = dose: 200.0 mg/kg/injection, schedule: Q01DX009 (ip), vehicle: saline
[8] = dose: 400.0 mg/kg/injection, schedule: Q01DX009 (ip), vehicle: saline
[9] = dose: 400.0 mg/kg/injection, schedule: Q04DX003 (ip), vehicle: saline with Tween-80
[10] = dose: 100.0 mg/kg/injection, schedule: Q01DX001 (ip), vehicle: saline
[11] = dose: 200.0 mg/kg/injection, schedule: Q01DX001 (ip), vehicle: saline
[12] = dose: 400.0 mg/kg/injection, schedule: Q01DX001 (ip), vehicle: saline
[13] = dose: 50.0 mg/kg/injection, schedule: Q01DX001 (ip), vehicle: saline
[14] = dose: 200.0 mg/kg/injection, schedule: Q01DX001 (ip), vehicle: carboxymethylcellulose (CMC)
[15] = dose: 400.0 mg/kg/injection, schedule: Q01DX001 (ip), vehicle: carboxymethylcellulose (CMC)

Measured: T/C

CCCCn1cncc1C
inactive: dose: 1.56 mg/kg/injection, schedule: Q01DX009 (ip), vehicle: saline 88 % of control | dose: 3.13 mg/kg/injection, schedule: Q01DX009 (ip), vehicle: saline 98 % of control | [1] 98 % of control and 104 % of control

COC(=O)c1ccc(N(C)Cc2cnc3[nH]c(N)nc(=S)c3n2)cc1
inactive: dose: 50.0 mg/kg/injection, schedule: Q01DX001 (ip), vehicle: saline with Tween-80 100 % of control | [2] 94 % of control | [3] 94 % of control

CC/[N+]([O-])=C/c1ncc([N+](=O)[O-])n1C
inactive: dose: 100.0 mg/kg/injection, schedule: Q04DX002 (ip), vehicle: saline 114 % of control | dose: 200.0 mg/kg/injection, schedule: Q04DX002 (ip), vehicle: saline 118 % of control | dose: 400.0 mg/kg/injection, schedule: Q04DX002 (ip), vehicle: saline 114 % of control

CN(C)/N=C\c1ccccc1Cl
inactive: dose: 12.5 mg/kg/injection, schedule: Q01DX009 (ip), vehicle: saline with Tween-80 91 % of control | dose: 25.0 mg/kg/injection, schedule: Q01DX009 (ip), vehicle: saline with Tween-80 102 % of control | dose: 50.0 mg/kg/injection, schedule: Q01DX009 (ip), vehicle: saline with Tween-80 100 % of control and 101 % of control | [2] 100 % of control | [4] 101 % of control | [3] 96 % of control | [5] 98 % of control | dose: 400.0 mg/kg/injection, schedule: Q01DX001 (ip), vehicle: saline with Tween-80 117 % of control

O=C1OC(c2ccccc2)=NC1c1ccccc1 (configuration not stated)
inactive: [6] 95 % of control | dose: 100.0 mg/kg/injection, schedule: Q04DX003 (ip), vehicle: carboxymethylcellulose (CMC) 101 % of control | [7] 97 % of control | dose: 200.0 mg/kg/injection, schedule: Q04DX003 (ip), vehicle: carboxymethylcellulose (CMC) 95 % of control | [8] 97 % of control | dose: 400.0 mg/kg/injection, schedule: Q04DX003 (ip), vehicle: carboxymethylcellulose (CMC) 97 % of control

COC(=O)c1cc2ccccc2cc1OCC(=O)NCc1ccc(Cl)cc1
inactive: dose: 50.0 mg/kg/injection, schedule: Q01DX001 (ip), vehicle: Klucel (hydroxypropylcellulose) (HPC) 105 % of control | dose: 100.0 mg/kg/injection, schedule: Q01DX001 (ip), vehicle: Klucel (hydroxypropylcellulose) (HPC) 94 % of control | dose: 200.0 mg/kg/injection, schedule: Q01DX001 (ip), vehicle: Klucel (hydroxypropylcellulose) (HPC) 97 % of control

O=S(=O)(OCC1CO1)c1ccc(Cl)c(Cl)c1 (configuration not stated)
inactive: dose: 100.0 mg/kg/injection, schedule: Q01DX008 (ip), vehicle: Klucel (hydroxypropylcellulose) (HPC) 96 % of control | dose: 200.0 mg/kg/injection, schedule: Q01DX008 (ip), vehicle: Klucel (hydroxypropylcellulose) (HPC) 102 % of control | dose: 400.0 mg/kg/injection, schedule: Q01DX008 (ip), vehicle: Klucel (hydroxypropylcellulose) (HPC) 106 % of control

O=C(Nc1cc(S(=O)(=O)F)ccc1Cl)Oc1ccc([N+](=O)[O-])cc1
inactive: [4] 102 % of control | [5] 97 % of control | [9] 100 % of control

CCN(CC)CCOC(=O)c1ccccc1S(N)(=O)=O
inactive: [10] 104 % of control | [11] 101 % of control | [12] 98 % of control

CC(C)C(CNC1=NCCN1)c1cccc2ccccc12 (configuration not stated)
inactive: dose: 12.5 mg/kg/injection, schedule: Q04DX003 (ip), vehicle: saline with Tween-80 93 % of control | dose: 25.0 mg/kg/injection, schedule: Q04DX003 (ip), vehicle: saline with Tween-80 93 % of control | dose: 50.0 mg/kg/injection, schedule: Q04DX003 (ip), vehicle: saline with Tween-80 119 % of control

C=C1CC[N+]2(CCCCCC)CCCC12 (configuration not stated)
inactive: [1] 97 % of control | dose: 12.5 mg/kg/injection, schedule: Q01DX009 (ip), vehicle: saline 91 % of control | dose: 25.0 mg/kg/injection, schedule: Q01DX009 (ip), vehicle: saline 103 % of control

O=Nn1cc(-c2cc3ccccc3n2N=O)c2ccccc21
inactive: [13] 102 % of control | [10] 93 % of control | [11] 96 % of control | [12] 96 % of control

[O-][n+]1c2ccccc2c(Cl)c2ccc3ccccc3c21
inactive: dose: 100.0 mg/kg/injection, schedule: Q04DX002 (ip), vehicle: saline with Tween-80 93 % of control | dose: 200.0 mg/kg/injection, schedule: Q04DX002 (ip), vehicle: saline with Tween-80 90 % of control | dose: 400.0 mg/kg/injection, schedule: Q04DX002 (ip), vehicle: saline with Tween-80 90 % of control

CCCCCCCCCCCCCCCCCC(=O)Oc1c(C(C)CC)cc([N+](=O)[O-])cc1[N+](=O)[O-] (configuration not stated)
inactive: dose: 100.0 mg/kg/injection, schedule: Q04DX002 (ip), vehicle: Klucel (hydroxypropylcellulose) (HPC) 89 % of control | dose: 200.0 mg/kg/injection, schedule: Q04DX002 (ip), vehicle: Klucel (hydroxypropylcellulose) (HPC) 86 % of control | dose: 400.0 mg/kg/injection, schedule: Q04DX002 (ip), vehicle: Klucel (hydroxypropylcellulose) (HPC) 105 % of control

CCCCCCCCCCCC1=C(O)C(=O)C(CC2=C(O)C(=O)C(CCCCCCCCCCC)=C(O)C2=O)=C(O)C1=O
inactive: [14] 100 % of control | [15] 103 % of control

CN1C(=S)c2ccccc2S1(=O)=O
inactive: [4] 106 % of control | [5] 94 % of control | [9] 92 % of control

CCSC1OC(COC(C)=O)C(OC(C)=O)C1NC(C)=O (configuration not stated)
inactive: [13] 103 % of control | [10] 113 % of control | [11] 97 % of control | [12] 107 % of control

COC12CC(COC(=O)c3cncc(Br)c3)CN(C)C1Cc1cn(C)c3cccc2c13 (configuration not stated)
inactive: dose: 100.0 mg/kg/injection, schedule: Q01DX009 (ip), vehicle: Klucel (hydroxypropylcellulose) (HPC) 100 % of control | dose: 200.0 mg/kg/injection, schedule: Q01DX009 (ip), vehicle: Klucel (hydroxypropylcellulose) (HPC) 116 % of control | dose: 400.0 mg/kg/injection, schedule: Q01DX009 (ip), vehicle: Klucel (hydroxypropylcellulose) (HPC) 113 % of control

CC(=O)OCCC/C(=C/c1ccc(/C=C(\CCCOC(C)=O)[N+](=O)[O-])cc1)[N+](=O)[O-]
inactive: dose: 100.0 mg/kg/injection, schedule: Q01DX001 (ip), vehicle: carboxymethylcellulose (CMC) 92 % of control | [14] 97 % of control | [15] 91 % of control

C=CCOCCO
inactive: [6] 108 % of control | dose: 100.0 mg/kg/injection, schedule: Q04DX003 (ip), vehicle: saline 100 % of control | [7] 108 % of control | dose: 200.0 mg/kg/injection, schedule: Q04DX003 (ip), vehicle: saline 95 % of control | [8] 101 % of control | dose: 400.0 mg/kg/injection, schedule: Q04DX003 (ip), vehicle: saline 100 % of control
